# Species on record: Rattus norvegicus
# Experiment: Open TG-GATES - Regimen: Single
# Type: toxicity, organism-based, Sprague-Dawley
# Set-up: regimen Single, gender Male, age 6 weeks
# Settings: in vivo, po, 300 mg/kg, route gavage, dose level Middle; for APTT / Bas / Eos / Fbg / Hb / Ht / Lym / MCH / MCHC / MCV / Mono / Neu / PT / Plat / RBC / Ret / WBC: tissue Blood; for KIDNEY_L / KIDNEY_R / KIDNEY_TOTAL: tissue Kidney; for LIVER: tissue Liver; for A/G / ALP / ALT / AST / BUN / CRE / Ca / Cl / DBIL / GLC / IP / K / LDH / Na / PL / RALB / TBIL / TC / TG / TP / gamma-GTP: tissue Plasma
smiles,measurement,setting,value
CC(C)(S)[C@@H](N)C(=O)O [PENICILLAMINE],TERMINAL_BW,3 h,203.8 g
same,APTT,3 h,16.5 s
same,Bas,3 h,0%
same,Eos,3 h,0.8%
same,Fbg,3 h,315.2 mg/dL
same,Hb,3 h,13.2 g/dL
same,Ht,3 h,40.7%
same,Lym,3 h,75.4%
same,MCH,3 h,20.9 pg
same,MCHC,3 h,32.3%
same,MCV,3 h,64.7 fL
same,Mono,3 h,3.8%
same,Neu,3 h,19.4%
same,PT,3 h,15.1 s
same,Plat,3 h,123.1 x10_4/uL
same,RBC,3 h,629.8 x10_4/ul
same,Ret,3 h,9%
same,WBC,3 h,73.3 x10_2/uL
same,KIDNEY_L,3 h,0.8 g
same,KIDNEY_R,3 h,0.9 g
same,KIDNEY_TOTAL,3 h,1.7 g
same,LIVER,3 h,8.6 g
same,A/G,3 h,0.9
same,ALP,3 h,1102.4 IU/L
same,ALT,3 h,43.6 IU/L
same,AST,3 h,73.4 IU/L
same,BUN,3 h,8.4 mg/dL
same,CRE,3 h,0.2 mg/dL
same,Ca,3 h,10.9 mg/dL
same,Cl,3 h,106.2 meq/L
same,DBIL,3 h,0.01 mg/dL
same,GLC,3 h,175 mg/dL
same,IP,3 h,8.4 mg/dL
same,K,3 h,4.3 meq/L
same,LDH,3 h,57.4 IU/L
same,Na,3 h,142.6 meq/L
same,PL,3 h,139.2 mg/dL
same,RALB,3 h,2.5 g/dL
same,TBIL,3 h,0.034 mg/dL
same,TC,3 h,73.8 mg/dL
same,TG,3 h,87.8 mg/dL
same,TP,3 h,5.3 g/dL
same,gamma-GTP,3 h,1 IU/L
same,TERMINAL_BW,6 h,200.3 g
same,APTT,6 h,14.8 s
same,Bas,6 h,0%
same,Eos,6 h,0.8%
same,Fbg,6 h,313.6 mg/dL
same,Hb,6 h,13.4 g/dL
same,Ht,6 h,41.5%
same,Lym,6 h,74.6%
same,MCH,6 h,20.4 pg
same,MCHC,6 h,32.3%
same,MCV,6 h,63.4 fL
same,Mono,6 h,3%
same,Neu,6 h,20.6%
same,PT,6 h,14.6 s
same,Plat,6 h,121.5 x10_4/uL
same,RBC,6 h,655.4 x10_4/ul
same,Ret,6 h,8.7%
same,WBC,6 h,87.9 x10_2/uL
same,KIDNEY_L,6 h,0.9 g
same,KIDNEY_R,6 h,0.9 g
same,KIDNEY_TOTAL,6 h,1.8 g
same,LIVER,6 h,8.2 g
same,A/G,6 h,0.9
same,ALP,6 h,1066.8 IU/L
same,ALT,6 h,36.6 IU/L
same,AST,6 h,72 IU/L
same,BUN,6 h,8.2 mg/dL
same,CRE,6 h,0.2 mg/dL
same,Ca,6 h,10.7 mg/dL
same,Cl,6 h,106.2 meq/L
same,DBIL,6 h,0.012 mg/dL
same,GLC,6 h,182.8 mg/dL
same,IP,6 h,9.5 mg/dL
same,K,6 h,4.4 meq/L
same,LDH,6 h,60.8 IU/L
same,Na,6 h,142.8 meq/L
same,PL,6 h,139.6 mg/dL
same,RALB,6 h,2.5 g/dL
same,TBIL,6 h,0.038 mg/dL
same,TC,6 h,79.2 mg/dL
same,TG,6 h,47.4 mg/dL
same,TP,6 h,5.2 g/dL
same,gamma-GTP,6 h,1 IU/L

# — ChEMBL document CHEMBL3885861, “Open TG-GATES”
